Where “and” joins values, the source holds several entries; their conditions need not be identical. Equal entries are not always repeated. Square brackets hold non-standard residues; d marks the D form. NMeV = CN[C@H](C(=O)O)C(C)C
Columns and labels:
mice = system: mice; design: method as in PMID 12183425; details: ref [65]; cited from earlier work
gynecologic malignancies = system: gynecologic malignancies; design: method as in PMID 18760451, PMID 22446624; details: ref [66],[67], cited from earlier work
[1] = system: patients with advanced glioblastoma; details: cited from earlier work
Source text: (§1) Since the identification of the integrin-binding domain (RGD) in fibronectin/vitronectin, RGD-containing peptides and derived compounds have been developed. […] In contrast, other trials have not shown cilengitide to be better in terms of progression-free survival or overall survival than the standard treatment ...

GBM models = details: cited from earlier work
Source text: as §1

[2] = system: aggressive and recurrent meningiomas; details: combination with an mTOR inhibitor; ref [72]; cited from earlier work
Source text: As far as translation into clinics is concerned, it is worth mentioning that small peptides, such as uPAcyclin, are generally non-immunogenic and cost-effective to produce, and some of them have already entered clinical trials. […] Nevertheless, small peptides need to reach molecular targets to accomplish their effects. Thus, they often depend on physiological transports and ...

[3] = system: U87-MG cells (αV integrin); assay: FITC-uPAcyclin receptor binding/competition, U87-MG; design: species or system human; details: vitronectin 200 µM, anti-αV 5 µg/mL, anti-α2 1 µg/mL
Method: The U87-MG, U251-MG, and U138-MG cell lines were harvested and acid-treated, as described. Then, 2 × 10^6 cells/sample were exposed for 30 min at 4 °C to uPAcyclin or S-uPAcyclin at the indicated concentrations, or with the following antibodies: VNR147 monoclonal anti-αV integrin (Chemicon Int. Inc., Temecula, CA, USA), polyclonal anti-αV (Millipore, Burlington, MA, USA), monoclonal anti-α2 (Chemicon Int. Inc., Temecula, CA, USA), polyclonal anti-actin (Sigma-Aldrich, St. Louis, MO, USA), monoclonal anti-GAPDH (Abcam, Cambridge, UK), and purified vitronectin (VN, Corning, Glendale, AZ, USA). The cells were subsequently incubated with 50 nM FITC-uPAcyclin for 2 h at 4 °C, as described. At the end of incubation, the cells were washed and the cell surface-associated fluorescence was determined using a fluorimeter (VICTOR^TM X3-PerkinElmer, Waltham, MA, USA). All binding assays were performed three times, with duplicate samples, and analyzed as described in Section 2.11.
Figure 2 αV expression of U87-MG, U251-MG, and U138-MG GBM cells and specific binding of FITC-uPAcyclin. (A) U87-MG, U251-MG, U138-MG, HEK-293, and HEK-293/αV total cell lysates were subjected to Western blotting and probed using polyclonal anti-αV or polyclonal anti-actin as loading control. (B) A total of 2 × 10^6 U87-MG, U251-MG, U138-MG, HEK-293/αV, or HEK-293 cells were pre-incubated for 30 min at 4 °C with 500 nM uPAcyclin and further exposed to 50 nM FITC-uPAcyclin for 2 h at 4 °C. At the end of the incubation, the unbound material was washed and cell-associated FITC-uPAcyclin was quantitated by a fluorimeter. The net value of cell-surface-associated fluorescence, corresponding to the specific binding, is shown. (C) A total of 2 × 10^6 U87-MG, U251-MG, and U138-MG cells were pre-incubated for 30 min at 4 °C with increasing concentrations of unlabeled uPAcyclin and then assayed for binding of FITC-uPAcyclin, for 2 h at 4 °C. Cell-surface-associated fluorescence, as percentage of the samples […], is shown. (D) U87-MG cells were pre-incubated with uPAcyclin (1 pM, 100 nM), scrambled uPAcyclin (S-uPAcyclin, 1 pM and 100 nM)), vitronectin (200 µM), anti-αv polyclonal (anti-αV Pclonal, 5 µg/mL) or monoclonal (anti-αV MoAb, 5 µg/mL) or anti-α2 monoclonal (anti-α2 MoAb, 1 µg/mL), polyclonal anti-actin, and monoclonal anti GAPDH. Then, cells were treated as in B (* p-value < 0.05; *** p-value < 0.001).

Ac-K^136PSSPPEE^143-NH2 [Å6]
anti-angiogenetic and anti-metastatic activity (mice): clearcut anti-angiogenetic and anti-metastatic activities in mice
tolerability (gynecologic malignancies; phase I, gynecologic malignancies): well tolerated
disease progression (gynecologic malignancies; phase II): delayed disease progression in the treated individuals

cilengitide: known αVβ3/αVβ5 integrin inhibitor (cyclo(RGD[dF][NMeV]); chains of the INN, looked up)
overall survival effect ([1]; patients with advanced glioblastoma, ref [52]): seemed to suggest a positive effect on overall survival
progression-free or overall survival vs standard treatments ([1]; ref [53]): have not shown cilengitide to be better in terms of progression-free survival or overall survival than the standard treatments
effect in GBM models (GBM models; ref [51]): cytotoxic, anti-angiogenetic, and anti-invasive effect in GBM models
tumor angiogenesis at lower doses (GBM models; suggested reason for failure in GBM patients, ref [54]): detrimental stimulation of tumor angiogenesis at lower doses

octreotide
efficacy and tolerability [2]: effective and well tolerated

vitronectin: purified vitronectin (Corning)
competition with FITC-uPAcyclin binding, in words ([3]; U87-MG, S-uPAcyclin 1 pM and 100 nM): only at a high concentration
FITC-uPAcyclin binding, single values ([3]; T-test sheet, single replicates of all EXPTs): 42 and 50 and 45 and 47
